The target of assay [1] is Wee1-like protein kinase (Homo sapiens) (UniProt P30291). Description: Inhibition of recombinant human WEE1 (214 to end residues) assessed as residual activity at 10 uM using LSNLYHQGKFLQTFCGSPLYRRR as substrate incubated for 40 mins in presence of [gamma33P]ATP by scintillation counting based radiometry assay relative to control.
Assay [2] deals with Testis-specific serine/threonine-protein kinase 3 (Homo sapiens) (UniProt Q96PN8). As to the kind of experiment: Inhibition of recombinant full-length human TSSK3 assessed as residual activity at 10 uM using AMARAASAAALARRR as substrate incubated for 40 mins in presence of [gamma33P]ATP by scintillation counting based radiometry assay relative to control.
In assay [3] the target is Dual specificity tyrosine-phosphorylation-regulated kinase 2 (Homo sapiens) (UniProt Q92630). Description: Inhibition of recombinant human DYRK2 assessed as residual activity at 10 uM using casein as substrate at 40 mins in presence of [gamma-33ATP] by scintillation counting based radiometry assay relative to control.
The target in assay [4] is Tau-tubulin kinase 1 (Homo sapiens) (UniProt Q5TCY1). As to the kind of experiment: Inhibition of recombinant human TTBK1 (1 to 479 residues) assessed as residual activity at 10 uM using casein as substrate incubated for 40 mins in presence of [gamma33P]ATP by scintillation counting based radiometry assay relative to control.
Sequence of Tau-tubulin kinase 1 (Homo sapiens) (Q5TCY1 whole entry, the tested form may be a part): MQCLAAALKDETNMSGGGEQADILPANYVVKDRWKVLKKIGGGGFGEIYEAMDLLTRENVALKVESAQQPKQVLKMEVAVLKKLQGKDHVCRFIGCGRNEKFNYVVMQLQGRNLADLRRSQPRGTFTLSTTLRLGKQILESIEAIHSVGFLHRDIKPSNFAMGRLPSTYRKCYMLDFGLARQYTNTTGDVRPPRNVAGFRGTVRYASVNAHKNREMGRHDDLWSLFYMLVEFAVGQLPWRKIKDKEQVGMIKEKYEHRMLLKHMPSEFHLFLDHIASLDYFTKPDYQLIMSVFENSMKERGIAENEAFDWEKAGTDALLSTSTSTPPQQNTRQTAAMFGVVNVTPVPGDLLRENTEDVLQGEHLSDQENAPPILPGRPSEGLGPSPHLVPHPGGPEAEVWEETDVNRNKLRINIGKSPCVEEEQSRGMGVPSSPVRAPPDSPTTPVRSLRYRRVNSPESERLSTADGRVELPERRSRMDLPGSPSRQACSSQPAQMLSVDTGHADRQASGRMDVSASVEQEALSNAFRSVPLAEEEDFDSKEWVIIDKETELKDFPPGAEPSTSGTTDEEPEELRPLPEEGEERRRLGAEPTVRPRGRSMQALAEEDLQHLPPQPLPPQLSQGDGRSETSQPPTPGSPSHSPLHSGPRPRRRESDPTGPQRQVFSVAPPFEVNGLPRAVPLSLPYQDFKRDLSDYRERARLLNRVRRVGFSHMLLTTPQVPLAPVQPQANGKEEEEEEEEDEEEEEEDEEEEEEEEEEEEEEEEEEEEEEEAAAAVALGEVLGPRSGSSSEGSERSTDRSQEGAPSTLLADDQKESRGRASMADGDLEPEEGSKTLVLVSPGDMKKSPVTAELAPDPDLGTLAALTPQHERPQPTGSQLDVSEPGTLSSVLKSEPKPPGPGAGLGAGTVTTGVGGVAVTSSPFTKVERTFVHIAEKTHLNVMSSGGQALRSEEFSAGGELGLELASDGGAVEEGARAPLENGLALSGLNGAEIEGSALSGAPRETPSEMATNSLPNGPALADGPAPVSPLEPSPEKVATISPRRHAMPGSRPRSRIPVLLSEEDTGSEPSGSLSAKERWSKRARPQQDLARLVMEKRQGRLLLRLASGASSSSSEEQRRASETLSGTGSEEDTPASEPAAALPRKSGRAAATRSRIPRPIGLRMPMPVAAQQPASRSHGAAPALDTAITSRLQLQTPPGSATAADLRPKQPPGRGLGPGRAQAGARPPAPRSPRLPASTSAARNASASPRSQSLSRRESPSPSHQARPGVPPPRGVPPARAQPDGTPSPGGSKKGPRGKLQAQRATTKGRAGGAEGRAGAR
For assay [5], the target named is Death-associated protein kinase 1 (Homo sapiens) (UniProt P53355). Description: Inhibition of recombinant human DAPK1 (1 to 296 residues) assessed as residual activity at 10 uM KKLNRTLSFAEPG as substrate incubated 40 mins in presence of [gamma-33ATP] by scintillation counting based radiometry assay relative to control.
Sequence of Death-associated protein kinase 1 (Homo sapiens) (P53355 whole entry, looked up, the tested form may be a part): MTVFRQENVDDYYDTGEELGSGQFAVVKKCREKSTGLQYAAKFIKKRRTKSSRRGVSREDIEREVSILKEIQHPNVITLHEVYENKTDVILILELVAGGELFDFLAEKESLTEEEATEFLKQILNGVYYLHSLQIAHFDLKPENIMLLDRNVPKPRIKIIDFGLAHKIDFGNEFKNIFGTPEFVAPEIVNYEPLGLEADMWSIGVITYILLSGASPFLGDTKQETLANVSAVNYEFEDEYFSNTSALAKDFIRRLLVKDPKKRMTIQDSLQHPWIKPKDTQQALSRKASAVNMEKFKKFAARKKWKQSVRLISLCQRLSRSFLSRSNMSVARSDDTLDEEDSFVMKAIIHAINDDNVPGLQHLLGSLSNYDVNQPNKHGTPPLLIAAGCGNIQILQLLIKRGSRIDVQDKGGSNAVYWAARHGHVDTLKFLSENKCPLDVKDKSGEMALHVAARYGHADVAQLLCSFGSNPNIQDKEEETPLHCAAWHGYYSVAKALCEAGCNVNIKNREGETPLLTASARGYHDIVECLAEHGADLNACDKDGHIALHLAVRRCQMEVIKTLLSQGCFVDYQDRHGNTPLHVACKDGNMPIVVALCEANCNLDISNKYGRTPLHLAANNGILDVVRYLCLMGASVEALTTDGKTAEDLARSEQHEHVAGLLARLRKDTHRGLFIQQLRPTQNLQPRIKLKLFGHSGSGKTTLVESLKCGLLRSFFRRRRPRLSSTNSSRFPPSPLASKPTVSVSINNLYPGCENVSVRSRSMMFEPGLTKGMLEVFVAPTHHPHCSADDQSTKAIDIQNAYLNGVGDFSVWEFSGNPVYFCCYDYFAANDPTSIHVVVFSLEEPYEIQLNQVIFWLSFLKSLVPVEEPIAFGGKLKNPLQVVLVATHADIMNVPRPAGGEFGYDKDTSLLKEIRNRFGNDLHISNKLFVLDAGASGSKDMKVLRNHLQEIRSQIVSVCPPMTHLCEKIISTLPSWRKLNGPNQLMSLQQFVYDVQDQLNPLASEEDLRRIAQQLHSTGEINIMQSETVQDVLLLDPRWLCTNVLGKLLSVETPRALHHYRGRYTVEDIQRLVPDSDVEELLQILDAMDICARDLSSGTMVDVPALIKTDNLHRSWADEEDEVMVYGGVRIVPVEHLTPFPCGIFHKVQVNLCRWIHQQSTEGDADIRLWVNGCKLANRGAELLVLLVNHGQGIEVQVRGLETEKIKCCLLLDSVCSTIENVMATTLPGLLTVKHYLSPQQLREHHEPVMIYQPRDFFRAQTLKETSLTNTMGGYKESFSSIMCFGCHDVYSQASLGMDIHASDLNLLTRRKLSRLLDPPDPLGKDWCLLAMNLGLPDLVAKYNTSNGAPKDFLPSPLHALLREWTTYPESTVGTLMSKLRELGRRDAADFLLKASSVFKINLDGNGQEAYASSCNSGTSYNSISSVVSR
In assay [6] the target is Serine/threonine-protein kinase 35 (Homo sapiens) (UniProt Q8TDR2). As to the kind of experiment: Inhibition of recombinant full length human CLIK1 assessed as residual activity at 10 uM using RSRSRSRSRSRS as substrate incubated 40 mins in presence of [gamma-33ATP] by scintillation counting based radiometry assay relative to control.
Sequence of Serine/threonine-protein kinase 35 (Homo sapiens) (Q8TDR2 whole entry): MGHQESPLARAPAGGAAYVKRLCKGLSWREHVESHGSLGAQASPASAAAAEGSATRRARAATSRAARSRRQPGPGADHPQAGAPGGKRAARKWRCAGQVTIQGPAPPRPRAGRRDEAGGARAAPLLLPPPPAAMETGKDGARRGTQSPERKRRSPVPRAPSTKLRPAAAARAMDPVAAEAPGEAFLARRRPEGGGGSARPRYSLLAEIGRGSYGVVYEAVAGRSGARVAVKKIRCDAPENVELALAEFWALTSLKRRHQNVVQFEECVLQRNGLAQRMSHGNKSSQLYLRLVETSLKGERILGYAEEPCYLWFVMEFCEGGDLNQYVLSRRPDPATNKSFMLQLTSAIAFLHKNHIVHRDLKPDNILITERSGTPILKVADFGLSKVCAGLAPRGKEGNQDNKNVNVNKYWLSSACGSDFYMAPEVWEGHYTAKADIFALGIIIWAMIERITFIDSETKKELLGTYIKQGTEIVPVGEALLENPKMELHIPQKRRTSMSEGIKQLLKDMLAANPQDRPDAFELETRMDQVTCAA
The species entered for assay [7] is Homo sapiens. As to the kind of experiment: Inhibition of recombinant human EphB2 A848S/K918E mutant (560 to end residues) assessed as residual activity at 10 uM using KTFCGTPEYLAPEVRREPRILSEEEQEMFRDFDYIADWC as substrate at 40 mins in presence of [gamma-33ATP] by scintillation counting based radiometry assay relative to control.
The target of assay [8] is 5'-AMP-activated protein kinase catalytic subunit alpha-1 (Homo sapiens) (UniProt Q13131). As to the kind of experiment: Inhibition of recombinant full length human AMPKalpha1 assessed as residual activity at 10 uM using AMARAASAAALAR as substrate incubated for 40 mins in presence of [gamma-33ATP] by scintillation counting based radiometry assay relative to control.
Sequence of 5'-AMP-activated protein kinase catalytic subunit alpha-1 (Homo sapiens) (Q13131 whole entry, looked up): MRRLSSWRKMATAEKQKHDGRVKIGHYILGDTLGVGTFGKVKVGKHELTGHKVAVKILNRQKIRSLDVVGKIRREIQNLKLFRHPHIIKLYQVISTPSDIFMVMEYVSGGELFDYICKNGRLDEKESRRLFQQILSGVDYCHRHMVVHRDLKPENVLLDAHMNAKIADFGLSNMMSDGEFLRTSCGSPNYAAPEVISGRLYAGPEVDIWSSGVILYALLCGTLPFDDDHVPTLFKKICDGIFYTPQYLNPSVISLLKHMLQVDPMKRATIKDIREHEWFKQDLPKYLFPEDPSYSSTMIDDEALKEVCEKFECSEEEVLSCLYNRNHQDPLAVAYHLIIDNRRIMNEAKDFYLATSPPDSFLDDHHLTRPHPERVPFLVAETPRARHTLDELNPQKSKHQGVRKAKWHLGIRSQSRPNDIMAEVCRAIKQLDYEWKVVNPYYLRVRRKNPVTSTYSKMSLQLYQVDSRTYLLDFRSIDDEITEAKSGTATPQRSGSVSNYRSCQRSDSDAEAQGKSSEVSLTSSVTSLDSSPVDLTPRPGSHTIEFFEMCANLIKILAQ
Assay [9] deals with Tyrosine-protein kinase Lyn (Mus musculus) (UniProt P25911). As to the kind of experiment: Inhibition of recombinant full length mouse Lyn assessed as residual activity at 10 uM using poly(Glu, Tyr) 4:1 as substrate after 40 mins in presence of [gamma-33ATP] by scintillation counting based radiometry assay relative to control.
Assay [10] addresses Myosin-IIIb (Homo sapiens) (UniProt Q8WXR4). As to the kind of experiment: Inhibition of recombinant human MYO3B (1 to 306 residues) assessed as residual activity at 10 uM using RLGRDKYKTLRQI as substrate measured after 40 mins in presence of [gamma33P]ATP by scintillation counting based radiometry assay relative to control.
The species named for assay [11] is Homo sapiens. As to the kind of experiment: Inhibition of recombinant human Ros V2262A mutant (1883 to end residues) assessed as residual activity at 10 uM using KKKSPGEYVNIEFG as substrate incubated for 40 mins in presence of [gamma33P]ATP by scintillation counting based radiometry assay relative to control.
Assay [12] relates to Calcium/calmodulin-dependent protein kinase kinase 2 (Homo sapiens), Q96RR4 [T85S]. Description: Inhibition of recombinant full length human CaMKK2 T85S mutant assessed as residual activity at 10 uM using […] incubated for 40 mins in presence of [gamma-33ATP] by scintillation counting based radiometry assay relative to control.
Sequence of Calcium/calmodulin-dependent protein kinase kinase 2 (Homo sapiens), Q96RR4 [T85S] (Q96RR4 whole entry T85S, the tested form may be a part): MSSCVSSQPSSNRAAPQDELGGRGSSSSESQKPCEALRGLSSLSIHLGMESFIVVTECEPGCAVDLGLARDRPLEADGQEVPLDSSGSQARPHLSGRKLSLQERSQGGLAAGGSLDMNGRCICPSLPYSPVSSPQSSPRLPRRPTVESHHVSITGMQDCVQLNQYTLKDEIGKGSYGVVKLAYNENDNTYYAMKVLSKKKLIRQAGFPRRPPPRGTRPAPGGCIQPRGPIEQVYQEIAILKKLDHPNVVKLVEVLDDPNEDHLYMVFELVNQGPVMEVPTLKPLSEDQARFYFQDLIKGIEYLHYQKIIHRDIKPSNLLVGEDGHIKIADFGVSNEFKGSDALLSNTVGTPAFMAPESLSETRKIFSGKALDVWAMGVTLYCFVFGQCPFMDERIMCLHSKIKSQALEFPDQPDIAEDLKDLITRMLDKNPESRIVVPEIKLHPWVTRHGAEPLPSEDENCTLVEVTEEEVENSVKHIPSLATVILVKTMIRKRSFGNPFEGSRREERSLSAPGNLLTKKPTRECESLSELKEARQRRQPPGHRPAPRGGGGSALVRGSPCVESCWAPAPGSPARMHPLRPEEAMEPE
Assay [13] addresses CDK4/Cyclin D3 (Homo sapiens) (UniProt P11802+P30281). Description: Inhibition of recombinant full length human CDK4/CyclinD3 assessed as residual activity at 10 uM using Rb fragment as substrate incubated for 40 mins in presence of [gamma-33ATP] by scintillation counting based radiometry assay relative to control. In kind it is protein-complex assay.
Assay [14] addresses Testis-specific serine/threonine-protein kinase 4 (Homo sapiens) (UniProt Q6SA08). As to the kind of experiment: Inhibition of recombinant full-length human TSSK4 assessed as residual activity at 10 uM using KKLNRTLSFAEPG as substrate incubated for 40 mins in presence of [gamma33P]ATP by scintillation counting based radiometry assay relative to control.
Assay [15] addresses Inhibitor of nuclear factor kappa-B kinase subunit alpha (Homo sapiens) (UniProt O15111). As to the kind of experiment: Inhibition of full length human IKKalpha assessed as residual activity at 10 uM using peptide as substrate after 40 mins by [gamma-33ATP] radiometric assay relative to control.
For assay [16], the system named is Platelet-derived growth factor receptor alpha (Homo sapiens), P16234 [D842V]. Description: Inhibition of human PDGFRalpha D842V mutant (550 to end residues) assessed as residual activity at 10 uM using poly(Glu, Tyr) 4:1 as substrate measured after 40 mins in presence of [gamma33P]ATP by scintillation counting based radiometry assay relative to control.
The target in assay [17] is Dual specificity tyrosine-phosphorylation-regulated kinase 3 (Homo sapiens) (UniProt O43781). Description: Inhibition of recombinant human DYRK3 assessed as residual activity at 10 uM using RRRFRPASPLRGPP as substrate at 40 mins in presence of [gamma-33ATP] by scintillation counting based radiometry assay relative to control.
Assay [18] concerns the target Eukaryotic translation initiation factor 2-alpha kinase 1 (Homo sapiens) (UniProt Q9BQI3). Description: Inhibition of human HRI (140 to end residues) assessed as residual activity at 10 uM using RSRSRSRSRSRSR as substrate after 120 mins by [gamma-33ATP] radiometric assay relative to control.
Assay [19] addresses Homeodomain-interacting protein kinase 1 (Homo sapiens) (UniProt Q86Z02). Description: Inhibition of human HIPK1 (158 to 555 residues) assessed as residual activity at 10 uM using myelin basic protein as substrate after 40 mins by [gamma-33ATP] radiometric assay relative to control.
For assay [20], the target named is Calcium/calmodulin-dependent protein kinase type 1D (Homo sapiens) (UniProt Q8IU85). Description: Inhibition of recombinant full length human CaMK1delta assessed as residual activity at 10 uM using […] incubated for 40 mins in presence of [gamma-33ATP] by scintillation counting based radiometry assay relative to control.
Sequence of Calcium/calmodulin-dependent protein kinase type 1D (Homo sapiens) (Q8IU85 whole entry, looked up): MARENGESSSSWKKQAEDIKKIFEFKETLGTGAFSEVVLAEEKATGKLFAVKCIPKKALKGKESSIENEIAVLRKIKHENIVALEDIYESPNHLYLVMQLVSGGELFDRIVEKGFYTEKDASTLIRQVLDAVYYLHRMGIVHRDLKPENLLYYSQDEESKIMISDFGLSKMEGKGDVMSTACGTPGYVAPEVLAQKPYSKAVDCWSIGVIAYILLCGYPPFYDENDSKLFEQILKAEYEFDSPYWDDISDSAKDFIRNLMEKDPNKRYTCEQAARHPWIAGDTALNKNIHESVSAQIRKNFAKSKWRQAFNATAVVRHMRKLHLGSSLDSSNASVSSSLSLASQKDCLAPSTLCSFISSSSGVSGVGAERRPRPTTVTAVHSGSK
Assay [21] deals with Serine/threonine-protein kinase Chk2 (Homo sapiens) (UniProt O96017). As to the kind of experiment: Inhibition of recombinant human CHK2 (5 to end residues) assessed as residual activity at 10 uM using KKKVSRSGLYRSPSMPENLNRPR as substrate incubated for 40 mins in presence of [gamma-33ATP] by scintillation counting based radiometry assay relative to control.

This passage reports Activity results from ChEMBL document CHEMBL4334471, “Discovery of 1,8-disubstituted-[1,2,3]triazolo[4,5-c]quinoline derivatives as a new class of Hippo signaling pathway inhibitors” (Bioorg Med Chem Lett, 2019).

As to `C[C@@H](c1ccccc1)n1nnc2cnc3ccc(-c4cnc5[nH]ccc5c4)cc3c21`, the Activity in assay [1] came to 101%; in assay [2] it was 64%; in [3] it was 94%; in assay [4] it was 91%; in [5], 84%; in [6], 75%. Moreover, the Activity in the assay listed under Homo sapiens [7] was 83%; in assay [8] it was 45%; in assay [9] it was 3%; in [10], 73%; in the assay filed under Homo sapiens [11] it was 102%; in assay [12] it was 79%. Moreover, the Activity in [13] is 74%; in assay [14], 77%; in assay [15] it was 90%; in [16], 4%; in assay [17], 79%; in [18] it was 91%. The Activity in assay [19] turned out to be 78%; in assay [20], 43%; in assay [21], 57%.
